In patent publication US8148097B2, “Screening method for identification of compounds with calcium-independent phospholipase A2β (iPLA2β) modulating activity” (Washington University, priority 2005, dated 2012):

Target: T1, iPLA2β (Cricetulus griseus, UniProt A0A3L7I2I8)
T1 construct: (His)6; made in house; host or cells: Sf9 insect cells (baculovirus)
T1 sequence (A0A3L7I2I8 1-752 isoform A0A3L7I2I8-2): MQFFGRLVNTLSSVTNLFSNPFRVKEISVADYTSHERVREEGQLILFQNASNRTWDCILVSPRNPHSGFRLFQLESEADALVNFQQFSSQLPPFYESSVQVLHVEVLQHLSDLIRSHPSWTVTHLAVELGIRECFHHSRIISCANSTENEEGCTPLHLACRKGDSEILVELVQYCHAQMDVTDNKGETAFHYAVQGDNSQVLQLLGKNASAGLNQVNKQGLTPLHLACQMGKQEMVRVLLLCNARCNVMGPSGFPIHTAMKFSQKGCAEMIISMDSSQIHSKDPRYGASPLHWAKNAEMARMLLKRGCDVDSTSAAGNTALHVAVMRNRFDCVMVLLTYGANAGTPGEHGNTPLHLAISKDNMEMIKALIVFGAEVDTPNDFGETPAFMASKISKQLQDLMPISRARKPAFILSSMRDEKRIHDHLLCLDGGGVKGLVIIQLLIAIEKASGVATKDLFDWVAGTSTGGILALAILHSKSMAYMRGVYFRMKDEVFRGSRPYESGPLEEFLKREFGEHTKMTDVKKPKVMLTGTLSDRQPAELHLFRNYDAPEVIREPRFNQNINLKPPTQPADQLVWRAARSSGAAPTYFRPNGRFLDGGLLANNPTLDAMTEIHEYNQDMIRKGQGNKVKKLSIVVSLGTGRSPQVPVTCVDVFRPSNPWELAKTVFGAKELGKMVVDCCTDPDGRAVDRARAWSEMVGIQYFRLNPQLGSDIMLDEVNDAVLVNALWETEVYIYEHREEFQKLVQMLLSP
Test: Covalent acylation (autoacylation) of iPLA2β with [14C]-long chain acyl-CoAs
Assay type: biochemical
Method: FIG. 5—Equivalent amounts of the indicated [1-^14C]-acyl-CoA guests (5 mol %) were incorporated into host POPC (100 μM) vesicles and incubated for 1 hr at 37° C. with equal amounts of either wild-type (WT) iPLA2β(His)6 (peptide disclosed as SEQ ID NO: 4), S465A iPLA2β(His)6 (peptide disclosed as SEQ ID NO: 4), or BEL-pretreated WT iPLA2β(His)6 (peptide disclosed as SEQ ID NO: 4) enzyme as described in Experimental Procedures. Samples were resolved by SDS-PAGE (10% gel), fixed, and dried before visualization by autoradiography.
FIG. 6—Purified iPLA2β(His)6 (peptide disclosed as SEQ ID NO: 4) (2 μM) was incubated with the indicated concentrations of [1-^14C]-oleoyl-CoA present as guest in host POPC (100 μM) vesicles for 1 hr at 37° C. Samples were electrophoresed in parallel with standard amounts (0.5-10 nCi) of [^14C]-BSA of known activity (not shown). The fixed and dried gel was exposed to film and the resultant signals from the [^14C]-BSA were utilized to generate a standard curve utilizing ID software from a Kodak Imagestation to determine the incorporation of [1-^14C]-oleate into iPLA2β.
FIG. 7—Purified iPLA2β(His)6 (peptide disclosed as SEQ ID NO: 4) was incubated with [1-^14C]-oleoyl CoA (10 mol %) incorporated as guest in host POPC vesicles. N-ethylmaleimide and iodoacetamide samples were pretreated with 5 mM of either reagent for 5 min at 30° C. before addition of [1-^14C]-oleoyl-CoA. Samples were incubated with 1 N HCl, 1 N NaOH, or 2 N neutral hydroxylamine for 1 hr at 30° C. as indicated. All samples, except lane 1, were precipitated with CHCl3/MeOH and washed with 70% acetone before SDS-PAGE and autoradiography as described in Experimental Procedures.
FIG. 10—Purified iPLA2β(His)6 (peptide disclosed as SEQ ID NO: 4) was incubated with [1-^14C]-oleoyl CoA (10 mol %) incorporated as guest in host POPC vesicles in the presence of EGTA (5 mM), Ca^2+ (1 mM), CaM (3 μg), or Ca^2+-CaM for 1 h at 37° C. Samples were resolved by SDS-PAGE and the gel was soaked in Amplify fluorographic reagent, dried, and exposed to film as described in Experimental Procedures.
Covalent Modification of […] with [^14C]-long chain Acyl CoAs—Purified recombinant iPLA2β(His)6 (peptide disclosed as SEQ ID NO: 4) was incubated with POPC vesicles containing 10 mol % [1-^14C]-acyl-CoA for 1 h at 37° C. […] Chloroform/methanol precipitation of some samples was performed as described (66) utilizing 15 μg of bovine serum albumin as carrier. In tests to examine the nature of the covalent linkage between oleic acid and iPLA2β, acid (HCl), base (NaOH), and hydroxylamine were added to the indicated concentrations and the samples were incubated at 30° C. for 1 h. Bovine serum albumin (15 μg) and SDS-PAGE loading buffer were then added to each sample prior to dialysis against 50 mM Tris-HCl, pH 6.8 containing 10% glycerol and 1% SDS for 4 h. Samples were electrophoresed by SDS-PAGE, fixed (40% methanol containing 10% acetic acid), stained with Coomassie Blue R-250, incubated in Amplify fluorographic reagent, dried, and exposed to Kodak Biomax MR film for 2-5 days at −80° C.

`CCCCCCCC/C=C\CCCCCCCC(=O)SCCNC(=O)CCNC(=O)[C@H](O)C(C)(C)COP(=O)(O)OP(=O)(O)OC[C@H]1O[C@@H](n2cnc3c(N)ncnc32)[C@H](O)[C@@H]1OP(=O)(O)O` [oleoyl-CoA] was tested, and the “[1-14C]-oleic acid incorporated per mole of iPLA2β” value (POPC vesicles, up to 5-fold molar excess of oleoyl-CoA, FIG. 6) was “approximately 1 mole” and the “radiolabeling of iPLA2β, fold greater than saturated counterparts” value (wild-type iPLA2β, FIG. 5) was 10-100 fold.
